{"source": "paper PMC8667045", "about": "“Into Deep Water: Optimizing BCL6 Inhibitors by Growing into a Solvated Pocket” (Journal of Medicinal Chemistry, 2021)", "key": {"OCI-Ly3": {"system": "OCI-Ly3", "experiment": "14 day cell viability assay (CellTiter Glo)", "assay_type": "cell-based", "conditions": "Homo sapiens, BCL6-low, 14 days of treatment"}, "[1]": {"experiment": "In vivo pharmacokinetic study in female Balb/c mice", "conditions": "mouse; for Cmax: blood", "description": "5. Supplementary experimental: in vivo PK and PD experiments\nAll procedures were in accordance with UK Home Office regulations under the Animals (Scientific […]\naccordance with published guidelines17. Mice were allowed access to food and water ad libitum.\n5.1In vivo pharmacokinetic studies\nAll experiments were conducted in accordance with the UKCC guidelines for animal experimentations17. Animals were adapted to laboratory conditions for at least 1 week prior to dosing and were allowed food and water ad libitum. CCT369347 (25) was administered iv or po (mouse, 0.1 mL/10 g in 10% DMSO, 5% tween 20 in saline); Blood samples were collected in […]\ncollection together with a standard curve and quality controls spiked in control blood. Samples were reconstituted in a Water:MeOH mixture containing internal standard as previously described […]\nFollowing centrifugation, extracts were analyzed by multiple reaction monitoring of precursor and product ions by ESI-LCMS/MS on either a Waters (Milford, MA, USA) Xevo TQ-S or Sciex (Framingham, MA, USA) QTrap6500 following gradient separation with 0.1% […]\nQuantitation was carried out with an external calibration. Quality controls were […]\nPharmacokinetic parameters were derived from noncompartmental analysis using Phoenix Pharsight. Non compartmental analysis (model 200"}, "BCL6 BTB domain [2]": {"biological_target": "T1, BCL6 BTB domain (Homo sapiens, UniProt P41182)", "experiment": "biochemical", "description": "Supplementary experimental: protein production, purification and crystallography\n3C protease cleavage site.\nused without cleaving the tag, as a 6His was needed to bind to the anti-6His-Terbium antibody. For\nFor both plasmid constructs described above, transformed BL21-AI E. coli cells were grown in LB\ncarried out at 18 °C for 18 hours. Cells were harvested by centrifugation (5500 g for 30 minutes at 4\noC) and stored at -80 °C.\nCells were re-suspended in a buffer composed of 20 mM Tris pH 8, 250 mM NaCl, 1 mM MgCl2, 0.5\nCells were lysed by sonication followed by centrifugation at 21,000 g for 45 minutes at 4 °C. […]\nThe final protein was assessed for purity\nand molar mass by SDS-PAGE and high-resolution mass spectrometry, respectively.\ndirectly eluted from the HisTrap FF column without HRV-3C treatment, and submitted to Superdex75\ngel filtration as described above. […]\n2. Supplementary experimental: biological assay conditions\nIC50 values were determined using\na sigmoidal four-parameter logistic fit equation."}, "OCI-Ly1": {"system": "OCI-Ly1", "experiment": "14 day cell viability assay (CellTiter Glo)", "assay_type": "cell-based", "conditions": "Homo sapiens, BCL6-high, 14 days of treatment"}, "SU-DHL-4": {"system": "SU-DHL-4", "experiment": "14 day cell viability assay (CellTiter Glo)", "assay_type": "cell-based", "conditions": "Homo sapiens, BCL6-high, 14 days of treatment"}, "SU-DHL-6": {"system": "SU-DHL-6", "experiment": "14 day cell viability assay (CellTiter Glo)", "assay_type": "cell-based", "conditions": "Homo sapiens, BCL6-high, 14 days of treatment"}, "BCL6 BTB domain [3]": {"biological_target": "T1, BCL6 BTB domain", "experiment": "SPR assay, immobilised BCL6 BTB protein (Biacore T200)", "assay_type": "binding", "set-up": "made in house; host or cells: E. coli BL21-AI"}, "MM.1S": {"system": "MM.1S", "experiment": "14 day cell viability assay (CellTiter Glo)", "assay_type": "cell-based", "conditions": "Homo sapiens, MM1.S; BCL6-low, 14 days of treatment"}, "[4]": {"experiment": "Protein binding by equilibrium dialysis", "assay_type": "in vitro ADME, mouse"}, "NMR solubility assay": {"experiment": "NMR solubility assay", "assay_type": "physicochemical", "conditions": "HEPES buffer, 5% DMSO, room temperature", "description": "3. Supplementary experimental: physicochemical assays\nThe plate was then sealed and incubated at room temperature for 20 hours, without shaking. The plate was centrifuged again for 1 minute at […]\nspectrometer equipped with a 5 mm TCI-CryoProbe. […]\ndeuterated solvent. […] All NMR data were acquired at the […]\ncontained 16k time-domain data points. Relaxation delay was set to 20 sec. […]"}, "Measured logD7.4": {"experiment": "Measured logD7.4", "assay_type": "physicochemical", "conditions": "pH 7.4"}, "[5]": {"experiment": "PAMPA passive permeability pH 7.4", "conditions": "pH 7.4, passive permeability Pe"}, "[6]": {"conditions": "female, Balb/c, whole blood, iv, 1 mg/kg, IV 1 mg/kg, individual animals"}, "[7]": {"conditions": "female, Balb/c, whole blood, po, 5 mg/kg, PO 5 mg/kg, individual animals"}, "[8]": {"conditions": "IV 1 mg/kg, individual animals, 1 mg/kg"}, "[9]": {"conditions": "PO 5 mg/kg, individual animals, 5 mg/kg"}}, "note": "“And” between values parts separate entries of the source, which are not always exact repeats. Equal values may be shown once. Read-outs that look alike come from different tables or passages of the source."}
{"compound": "Cn1c(=O)cc(NC(C)(C)c2ncc(C3CC3)cn2)c2cc(Nc3ccnc(Cl)c3C#N)ccc21", "note": "[Compound 25, 2-Chloro-4-((4-((2-(5-cyclopropylpyrimidin-2-yl)propan-2-yl)amino)-1-methyl-2-oxo-1,2-dihydroquinolin-6-yl)amino)nicotinonitrile]", "values": [{"measurement": "GI50", "setting": "OCI-Ly3", "result": "> 10", "unit": "µM"}, {"measurement": "clearance", "setting": "[1]; female, Balb/c, whole blood, iv, 1 mg/kg, 1 mg kg^–1 i.v., mean, read-out: clearance (CL)", "result": 1.44, "unit": "L/h/kg"}, {"measurement": "Cmax", "setting": "[1]; [6]", "result": 0.443, "unit": "µM"}, {"measurement": "AUC(0-inf)", "setting": "[1]; [6]", "result": 1380, "unit": "nM·h"}, {"measurement": "AUC(0-t)", "setting": "[1]; [6]", "result": 1280, "unit": "nM·h"}, {"measurement": "clearance", "setting": "[1]; female, Balb/c, whole blood, iv, 1 mg/kg, IV 1 mg/kg, individual animals, read-out: CL", "result": 1.49, "unit": "L/h/kg"}, {"measurement": "Tmax", "setting": "[1]; female, Balb/c, whole blood, iv, 1 mg/kg, IV 1 mg/kg, individual animals, read-out: Tmax", "result": 0.08, "unit": "h"}, {"measurement": "Vd", "setting": "[1]; female, Balb/c, whole blood, iv, 1 mg/kg, IV 1 mg/kg, individual animals, read-out: Vss", "result": 9.43, "unit": "L/kg"}, {"measurement": "Cmax", "setting": "[1]; [7]", "result": 0.347, "unit": "µM"}, {"measurement": "AUC(0-inf)", "setting": "[1]; [7]", "result": 1440, "unit": "nM·h"}, {"measurement": "AUC(0-t)", "setting": "[1]; [7]", "result": 1350, "unit": "nM·h"}, {"measurement": "Tmax", "setting": "[1]; female, Balb/c, whole blood, po, 5 mg/kg, PO 5 mg/kg, individual animals, read-out: Tmax", "result": 2, "unit": "h"}, {"measurement": "bioavailability", "setting": "[1]; female, Balb/c, whole blood, po, 5 mg kg^–1 p.o. vs 1 mg kg^–1 i.v.", "result": 29, "unit": "%"}, {"measurement": "toxicity in PK study", "setting": "[1]; 1 mg kg^–1 i.v. and 5 mg kg^–1 p.o.", "result": "no toxicity was observed"}, {"measurement": "Cmax", "setting": "[1]; [8]", "result": "0.521 µM and 0.471 µM"}, {"measurement": "AUCINF", "setting": "[1]; [8]", "result": "1450 nM·h and 1416 nM·h"}, {"measurement": "AUClast", "setting": "[1]; [8]", "result": "1395 nM·h and 1344 nM·h"}, {"measurement": "CL", "setting": "[1]; [8]", "result": "1.42 L/h/kg and 1.45 L/h/kg"}, {"measurement": "HL_Lambda_z", "setting": "[1]; [8]", "result": "7.99 h and 5.93 h and 6.83 h"}, {"measurement": "Vss", "setting": "[1]; [8]", "result": "6.96 L/kg and 7.81 L/kg"}, {"measurement": "Cmax", "setting": "[1]; [9]", "result": "0.382 µM and 0.427 µM"}, {"measurement": "AUCINF", "setting": "[1]; [9]", "result": "1848 nM·h and 1279 nM·h"}, {"measurement": "AUClast", "setting": "[1]; [9]", "result": "1534 nM·h and 1233 nM·h"}, {"measurement": "HL_Lambda_z", "setting": "[1]; [9]", "result": "1.33 h and 2.12 h and 1.14 h"}, {"measurement": "Tmax", "setting": "[1]; [9]", "result": 1, "unit": "h"}, {"measurement": "IC50", "setting": "BCL6 BTB domain [2]; BCL6 TR-FRET Geo Mean IC50, geometric mean of n replicates, supplement", "result": 0.03, "unit": "µM"}, {"measurement": "IC50", "setting": "BCL6 BTB domain [2]; TR-FRET IC50 individual replicates, single replicates, italic values used 10nM BCL6, otherwise 1nM BCL6", "result": "40 nM and 20 nM (2×) and 30 nM (2×)"}, {"measurement": "BCL6 TR-FRET pIC50 mean", "setting": "BCL6 BTB domain [2]; mean of n replicates", "result": "7.58 and 7.583"}, {"measurement": "IC50", "setting": "BCL6 BTB domain [2]; read-out: BCL6 TR-FRET Geo Mean IC50, geometric mean of n replicates, supplement", "result": 0.0261, "unit": "µM"}, {"measurement": "GI50", "setting": "OCI-Ly1", "result": 1.68, "unit": "µM"}, {"measurement": "GI50", "setting": "SU-DHL-4", "result": 3.45, "unit": "µM"}, {"measurement": "GI50", "setting": "SU-DHL-6", "result": 2.55, "unit": "µM"}, {"measurement": "Kd", "setting": "BCL6 BTB domain [3]; individual runs, Langmuir plot, 1:1 binding model, read-out: SPR KD", "result": "0.277 µM and 0.282 µM and 0.198 µM and 0.201 µM"}, {"measurement": "Kd", "setting": "BCL6 BTB domain [3]; mean of four runs, read-out: SPR KD mean value", "result": 0.236, "unit": "µM"}, {"measurement": "SPR pKd", "setting": "BCL6 BTB domain [3]; mean, +/- SEM where printed", "result": 6.63}, {"measurement": "GI50", "setting": "MM.1S", "result": "> 10", "unit": "µM"}, {"measurement": "free in mouse plasma", "setting": "[4]", "result": 1.3, "unit": "%"}, {"measurement": "solubility at 20 h", "setting": "NMR solubility assay", "result": "30 µM and 29 µM"}, {"measurement": "logD", "setting": "Measured logD7.4", "result": 2.7}, {"measurement": "PAMPA7.4", "setting": "[5]", "result": "35 x10^-6 cms^-1"}]}
